Source: patent publication US6384048B1, “Imidazonaphthyridines” (Byk Gulden Lomberg Chemische Fabrik GmbH, priority 1998, dated 2002)

Assays:
[1] = test system: pentagastrin-stimulated acid secretion of the perfused rat stomach; assay: Secretion-inhibiting action on the perfused rat stomach (pentagastrin-stimulated acid secretion, in vivo); settings: anesthetized CD rat, dose 3 μmol/kg i.v.
From the text: Testing of the Secretion-inhibiting Action on the Perfused Rat Stomach
In Table A which follows, the influence of the compounds according to the invention on the pentagastrin-stimulated acid secretion of the perfused rat stomach after intravenous administration in vivo is shown.
The abdomen of anesthetized rats (CD rat, female, 200-250 g; 1.5 g/kg i.m. urethane) was opened after tracheotomy by a median upper abdominal incision and a PVC catheter was fixed transorally in the esophagus and another via the pylorus such that the ends of the tube just projected into the gastric lumen. The catheter leading from the pylorus led outwards into the right abdominal wall through a side opening.
After thorough rinsing (about 50-100 ml), warm (37° C.) physiological NaCl solution was continuously passed through the stomach (0.5 ml/min, pH 6.8-6.9; Braun-Unita 1). The pH (pH meter 632, glass electrode EA 147; φ=5 mm, Metrohm) and, by titration with a freshly prepared 0.01 N NaOH solution to pH 7 (Dosimat 665 Metrohm), the secreted HCl were determined in the effluent in each case collected at an interval of 15 minutes.
The gastric secretion was stimulated by continuous infusion of […] (=1.65 ml/h) of i.v. pentagastrin (left femoral vein) about 30 min after the end of the operation (i.e. after determination of 2 preliminary fractions). […]

SMILES | melting point [°C] | Inhibition of acid secretion [1] [%]
CCS[C@@H]1c2ccn3c(C)c(C)nc3c2N[C@H](c2ccccc2)[C@H]1O [Example 5, (7R,8R,9R)-2,3dimethyl-8-hydroxy-7-(ethylthio)-9-phenyl-7,8,9,10-tetrahydro-imidazo[1,2-h][1,7]naphthyridine] | 220 to 223 | 100
Cc1nc2c3c(ccn2c1C)[C@H](OCC[S+](C)[O-])[C@H](O)[C@@H](c1ccccc1)N3 (stereo partly drawn) [Example 4, (7S,8R,9R)-2,3-dimethyl-8-hydroxy-7-(2-methylsulphinylethoxy)-9-phenyl-7,8,9,10-tetrahydroimidazo[1,2-h][1,7]naphthyridine] | 85 to 87 | 
CSCCO[C@@H]1c2ccn3c(C)c(C)nc3c2N[C@H](c2ccccc2)[C@H]1O [Example 1, (7R,8R,9R)-2,3-dimethyl-8-hydroxy-7-(2-methylthioethyloxy)-9-phenyl-7,8,9,10-tetrahydroimidazo[1,2-h][1,7]naphthyridine] | 118 to 119 | 100
CSCCO[C@H]1c2ccn3c(C)c(C)nc3c2N[C@H](c2ccccc2)[C@H]1O [Example 2, (7S,8R,9R)-2,3-dimethyl-8-hydroxy-7-(2-methylthioethyloxy)9-phenyl-7,8,9,10-tetrahydroimidazo[1,2-h][1,7]naphthyridine] | 109 to 110 | 
CCS[C@H]1c2ccn3c(C)c(C)nc3c2N[C@H](c2ccccc2)[C@H]1O [Example 6, (7S,8R,9R)-2,3-dimethyl-8-hydroxy-7-(ethylthio)-9-phenyl-7,8,9,10-tetrahydro-imidazo[1,2-h][1,7]naphthyridine] | 235 to 236 | 
Cc1nc2c3c(ccn2c1C)[C@@H](OCC[S+](C)[O-])[C@H](O)[C@@H](c1ccccc1)N3 (stereo partly drawn) [Example 3, (7R,8R,9R)-2,3-dimethyl-8-hydroxy-7-(2-methylsulphinylethoxy)-9phenyl-7,8,9,10-tetrahydroimidazo[1,2-h][1,7]naphthyridine] | 105 to 106 | 
